Results: US20210260055A1, “TOPICAL FORMULATIONS OF DGAT1 INHIBITORS AND THEIR METHODS OF USE” (Dermavant Sciences GmbH, priority 2018, published 2021)
pIC50: −log10 of the molar value.

Experiments:
[1] = tested on: human sebocyte cell line; test: Nile Red Neutral Lipid Accumulation Assay; type: cell-based; settings: day 3 of treatment, with 1 μM T0901317 and 1 μM insulin
Protocol: This assay examines the ability of compounds to stimulate or inhibit lipid accumulation in human sebocyte cell line. Cells were seeded in tissue culture treated black clear bottom plates. Compounds were added in the presence of Liver X Receptor (LXR) agonist (T0901317) and 1 μM insulin for 3 days and 5 days. For the 5 day treatment fresh compounds were added at Day 3. After the treatment period nile red dye was added and the relative fluorescence determined for both total and neutral lipids. The neutral/total lipid ratio was calculated and obtained values were normalized to both the Cell Titer Blue viability reagent.
Protocol—Day 1: Human immortalized sebocytes were seeded at 10,000 cells/well in 96-well black, clear bottom plates in Sebocyte Growth Medium and allowed to attach overnight at 37° C. […] 3) The relative fluorescence (RFU) of the incorporated stain was determined under 2 parameters: 540ex/620em with no cutoff (Total Lipid), and 485ex/555em with a 515 cutoff (Neutral Lipid) using bottom reads. […] Cell titer blue reagent (100 was then added to each well and the cells were allowed to incubate for 2 hours at 37° C., 5% CO2. 5) The RFU value was determined at 560ex/590em with a 570 cutoff using a top read.
Data Analysis—Cell viability is presented as cell titer blue fluorescence reading (RFU) for each treatment. […] Minimum and maximum values are determined by UNT and LXR+INS controls. […]

[2] = tested on: Human immortalized sebocytes; test: Cleaved Caspase 3 Assay; type: cell-based; settings: for cleaved caspase 3: any concentration, 2, 3 and 5 day treatment; for sebocyte apoptosis: conditions of this in vitro assay
Protocol: This assay examines the ability of compounds to induce apoptosis by measuring Caspase 3 generated by proteolytic processing. Cells were seeded in tissue culture treated clear bottom plates. Compounds were added in the presence of Liver X Receptor (LXR) agonist (T0901317) and 1 μM insulin for 2, 3 and 5 days. For the 5 day treatment fresh compounds were added at Day 3. After the treatment period lysates were prepared according to the manufacturer's instructions and frozen at −80° C. until the day of the assay.
Protocol—Day 1: Human immortalized sebocytes were seeded at 10,000 cells/well in 96-well, clear bottom plates in Sebocyte Growth Medium and allowed to attach overnight at 37° C. Day 2: Medium was refreshed by removing seeding medium and adding fresh Sebocyte Growth Medium. Cells were maintained at 37° C. to allow degradation of the temperature sensitive SV40 large T antigen. Day 4: 1000× stocks (in DMSO) of each compound were prepared (3 mM and 100 μM) and were diluted 1:1000 in Sebocyte Treatment Media containing 1 μM T0901317 and 1 μM Insulin to give a final top concentration of 3000 nM and 100 nM for further 10-fold dilutions in the same medium according to the plate map below. The cell medium was removed and replaced with Sebocyte Treatment Medium containing 1 μM T0901317, 1 μM Insulin, compound dilution, or vehicle (DMSO) as per plate maps for a 2, 3 and 5 day treatment. For untreated controls, media was removed and replaced with Sebocyte Treatment Media only (no T091317 or Insulin). For the 5 day treatment cells were retreated as described above on Day 7. Day 6, 7 or Day 9: 1) After treatment, the plate was centrifuged at 300×g for 10 minutes. 2) After centrifugation, the medium was removed the cells rinsed with ice-cold PBS and then centrifuged again at 300×g for 10 minutes. 3) After centrifugation the PBS was removed and replaced with 30 μl/well and left on ice for 5 minutes. 4) After 5 minutes, the lysates were frozen at −80° C. until the day of the assay. Day of Assay: Buffers and reagents were prepared according to the manufacturer's instructions. 1) 25 μl of lysate was added to the corresponding well of a 96 well black clear bottom plates. 2) 200 μl of the prepared substrate solution B was added to each well. 3) After 1 hr incubation in the dark, the relative fluorescence was determined using the following settings: 380ex/420em.
Data analysis—IC50s were determined for each test sample by using appropriate curve fits in GraphPad Prism (v.7). […]

Row | pIC50 ([1]; Homo sapiens, 72 h) | pIC50 [1] | SMILES | cleaved caspase 3 [2] | sebocyte apoptosis [2]
1 | 7.60 |  | Cc1nc(C)c(-c2ccc([C@H]3CC[C@H](CC(=O)O)CC3)cc2)nc1C(N)=O [DMVT-503, 2-((1R,4R)-4-(4-(6-carbamoyl-3,5-dimethylpyrazin-2-yl)phenyl)cyclohexyl)acetic acid] | No significant cleaved caspase 3 detected | did not induce sebocyte apoptosis
2 |  | 6.08 | CC1=C(/C=C/C(C)=C/C=C/C(C)=C\C(=O)O)C(C)(C)CCC1 [Mix 13-cis-RA, 13-cis-retinoic Acid, reference compound] | No significant cleaved caspase 3 detected | did not induce sebocyte apoptosis
